Test results: patent US20020176889A1 (priority 2000, published 2002)
Counter-ions that a name gives are not always drawn.

Assay: pH of saturated aqueous solution
Type: physicochemical
From the text: The pH of the composition can be controlled or adjusted by the proper selection of excipients. It should be borne in mind that amlodipine maleate is slightly acidic. […] An example of a pH-inert excipient is microcrystalline cellulose.

pH as a saturated aqueous solution: about 4.8
SMILES: CCOC(=O)C1=C(COCCN)NC(C)=C(C(=O)OC)C1c1ccccc1Cl (stereo not shown) [amlodipine maleate]
